Calls of active or inactive are those of the source. The rule behind the calls is not given here.
Assays:
K562 [1] = assay: Antiproliferative activity against human K562 cells after 72 hrs by MTT test; type: functional, cell-based; settings: K562, 72 h
HCT-116 [2] = assay: Antiproliferative activity against human HCT116 cells expressing wild-type p53 after 72 hrs by MTT test; type: functional, cell-based; settings: HCT-116, 72 h
[3] = Antiproliferative activity against human p53 deficient HCT116 p53-/- cells after 72 hrs by MTT test; type: functional, cell-based; settings: HCT-116, 72 h
[4] = target: T1, DNA topoisomerase 1 (Homo sapiens) (UniProt P11387); assay: Inhibition of topoisomerase 1 at >50 uM
T1 sequence (whole entry): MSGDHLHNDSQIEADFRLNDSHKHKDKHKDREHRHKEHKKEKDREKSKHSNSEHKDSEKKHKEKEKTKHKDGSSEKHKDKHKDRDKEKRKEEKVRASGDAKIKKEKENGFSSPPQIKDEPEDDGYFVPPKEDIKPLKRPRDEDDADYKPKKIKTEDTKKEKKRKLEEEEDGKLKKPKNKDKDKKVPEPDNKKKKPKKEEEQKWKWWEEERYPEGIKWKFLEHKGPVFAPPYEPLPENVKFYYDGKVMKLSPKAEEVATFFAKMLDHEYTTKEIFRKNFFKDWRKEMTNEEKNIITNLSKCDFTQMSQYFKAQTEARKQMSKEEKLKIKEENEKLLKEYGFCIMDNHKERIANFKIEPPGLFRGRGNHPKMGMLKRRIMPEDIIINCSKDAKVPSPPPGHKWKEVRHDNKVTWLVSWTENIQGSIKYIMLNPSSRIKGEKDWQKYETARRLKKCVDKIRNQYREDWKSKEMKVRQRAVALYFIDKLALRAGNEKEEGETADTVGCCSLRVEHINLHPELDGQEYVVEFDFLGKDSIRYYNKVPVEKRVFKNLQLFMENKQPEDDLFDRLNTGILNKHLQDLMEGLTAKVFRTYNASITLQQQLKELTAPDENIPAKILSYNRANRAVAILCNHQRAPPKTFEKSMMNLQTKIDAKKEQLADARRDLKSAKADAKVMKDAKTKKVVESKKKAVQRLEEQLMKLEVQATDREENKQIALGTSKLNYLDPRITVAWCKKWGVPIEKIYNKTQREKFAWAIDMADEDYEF

[5] = Antiproliferative activity against human multidrug-resistant K562i/S9 cells expressing Pgp after 72 hrs by MTT test; type: functional, cell-based; settings: K562i/S9, 72 h
K562 [6] = assay: Resistance index, Ratio of IC50 for human drug-resistant K562i/S9 cells to IC50 for human K562 cells; type: functional
HCT-116 [7] = assay: Resistance index, Ratio of IC50 for human p53 deficient HCT116 p53-/- cells to IC50 for human wild type HCT116 cells; type: functional
[8] = target: T1, DNA topoisomerase 1 (Homo sapiens); assay: Inhibition of topoisomerase 1 assessed as attenuation of DNA relaxation
[9] = target: T1, DNA topoisomerase 1 (Homo sapiens); assay: Inhibition of topoisomerase 1 at 3 uM

| SMILES | IC50 (HCT-116 [2]) | Activity [4] | IC50 (K562 [1]) | IC50 [3] | IC50 [5] | Ratio IC50 (K562 [6]) | Ratio IC50 (HCT-116 [7]) | Activity [8] | Activity [9] |
| --- | --- | --- | --- | --- | --- | --- | --- | --- | --- |
| COc1cccc2c1C(=O)c1c(O)c3c(c(O)c1C2=O)C[C@@](O)(C(=O)CO)C[C@@H]3O[C@H]1C[C@H](N)[C@H](O)[C@H](C)O1 [DOXORUBICIN] | 1.4 µM | Active | – | 4.4 µM | – | – | – | – | – |
| NCCc1c[nH]c2c(O)c3c(c(O)c12)C(=O)c1ccccc1C3=O | 1.1 µM | – | 4 µM | 1.2 µM | 2.2 µM | 0.6 | 1.1 | Dose-dependent effect | Active |
| CC(N)Cc1c[nH]c2c(O)c3c(c(O)c12)C(=O)c1ccccc1C3=O (stereo unspecified) | 4.8 µM | – | 12 µM | 5 µM | 13.4 µM | 1.1 | 1 | – | – |

Second part, led by results:

| IC50 (HCT-116 [2]) | Activity [4] | SMILES | IC50 (K562 [1]) | IC50 [3] | IC50 [5] | Ratio IC50 (K562 [6]) | Ratio IC50 (HCT-116 [7]) | Activity [8] | Activity [9] |
| --- | --- | --- | --- | --- | --- | --- | --- | --- | --- |
| > 50 µM | – | NC(Cc1c[nH]c2c(O)c3c(c(O)c12)C(=O)c1ccccc1C3=O)C(=O)O (stereo unspecified) | > 50 µM | – | – | – | – | – | – |
| 14.9 µM | – | CCOC(=O)C(N)Cc1c[nH]c2c(O)c3c(c(O)c12)C(=O)c1ccccc1C3=O (stereo unspecified) | > 50 µM | – | – | – | – | – | – |

Source: ChEMBL document CHEMBL1142919, “Naphthoindole-based analogues of tryptophan and tryptamine: synthesis and cytotoxic properties” (Bioorg Med Chem, 2007)
